The source of these data is ChEMBL document CHEMBL1123608, “In vivo antitumor activity of 6-benzyl-1,3-benzodioxole derivatives against the P388, L1210, B16, and M5076 murine models” (1987).

Experiment [1] in a line: Ability to inhibit the dibutyryl-cAMP-induced change of an immature glioma cell to a mature, differentiated astrocyte by in vitro astrocytoma assay at 1 ug/mL dose (Experiment #1) value may range from 0 to 5. It is filed as functional, Mus musculus.
Experiment [2] is described as follows: Ability to inhibit the dibutyryl-cAMP-induced change of an immature glioma cell to a mature, differentiated astrocyte by in vitro astrocytoma assay at 100 ug/mL dose (Experiment #1) value may range from 51 to 70. It is filed as functional, Mus musculus.
A short description of experiment [3]: Ability to inhibit the dibutyryl-cAMP-induced change of an immature glioma cell to a mature, differentiated astrocyte by in vitro astrocytoma assay at 100 ug/mL dose (Experiment #2) value may range from 31 to 50. It is filed as functional, Mus musculus.
For experiment [4], the system named is Mus musculus. In words: The percent increase in life span on P388 cells which were inoculated intraperitoneally in CD2F1 mice at 200 mg/kg dose placed at ranking order 3. Particulars: P388, ip, route intraperitoneal. It is filed as functional.
Experiment [5] in a line: Ability to inhibit the dibutyryl-cAMP-induced change of an immature glioma cell to a mature, differentiated astrocyte by in vitro astrocytoma assay at 10 ug/mL dose (Experiment #1) value may range from 6 to 15. It is filed as functional, Mus musculus.
Experiment [6] relates to Mus musculus. The experiment is described as follows: In vivo antitumor activity against the L1210 leukemia cell line expressed as percent increase in life span at 200 mg/kg dose. Particulars: Mus musculus, L1210, dose 200 mg/kg. It is filed as functional.
Experiment [7] has as its system Mus musculus. In words: In vivo antitumor activity against the B16 melanoma cell line expressed as percent increase in life span at 100 mg/kg dose. It is filed as functional.
The subject of experiment [8] is Mus musculus. In words: The percent increase in life span on P388 cells which were inoculated intraperitoneally in CD2F1 mice at 200 mg/kg dose placed at ranking order 1. It is filed as functional. The settings on record: P388, ip, route intraperitoneal.
Experiment [9] in a line: Ability to inhibit the dibutyryl-cAMP-induced change of an immature glioma cell to a mature, differentiated astrocyte by in vitro astrocytoma assay at 1 ug/mL dose (Experiment #2) value may range from 0 to 5. It is filed as functional, Mus musculus.
Experiment [10] has as its system Mus musculus. The experiment is described as follows: The percent increase in life span on P388 cells which were inoculated intraperitoneally in CD2F1 mice at 400 mg/kg (tested in the same control) dose placed at ranking order 4. In kind it is functional. Particulars: P388, ip, route intraperitoneal.
For experiment [11], the system named is Mus musculus. The experiment is described as follows: In vivo antitumor activity against the M5076 reticulum cell sarcoma expressed as percent increase in life span at 800 mg/kg doseEach represents a pair of experiments performed with the same control group. In kind it is functional.
For experiment [12], the system named is Mus musculus. The experiment is described as follows: Percent increase in life span (ILS) was measured on P388 cells which were inoculated intraperitoneally in CD2F1 mice. It is filed as functional.
For experiment [13], the system named is Mus musculus. The experiment is described as follows: The percent increase in life span on P388 cells which were inoculated intraperitoneally in CD2F1 mice at 800 mg/kg dose placed at ranking order 2. In kind it is functional. The settings on record: P388, ip, route intraperitoneal.
The test system of experiment [14] is Mus musculus. In words: In vivo antitumor activity against the L1210 leukemia cell line expressed as percent increase in life span at 400 mg/kg dose. It is filed as functional.
The test system of experiment [15] is Mus musculus. In words: In vivo antitumor activity against the M5076 reticulum cell sarcoma expressed as percent increase in life span at 400 mg/kg dose. It is filed as functional.
In experiment [16] the test system is Mus musculus. The experiment is described as follows: In vivo antitumor activity against the B16 melanoma cell line expressed as percent increase in life span at 200 mg/kg dose. In kind it is functional.
Experiment [17] in a line: Ability to inhibit the dibutyryl-cAMP-induced change of an immature glioma cell to a mature, differentiated astrocyte by in vitro astrocytoma assay at 10 ug/mL dose (Experiment #2) value may range from 31 to 50. It is filed as functional, Mus musculus.
In experiment [18] the test system is Mus musculus. In words: The percent increase in life span on P388 cells which were inoculated intraperitoneally in CD2F1 mice at 200 mg/kg dose placed at ranking order 2. In kind it is functional. Particulars: P388, ip, route intraperitoneal.
Experiment [19] concerns Mus musculus. In words: The percent increase in life span on P388 cells which were inoculated intraperitoneally in CD2F1 mice at 400 mg/kg dose placed at ranking order 4. It is filed as functional. The settings on record: P388, ip, route intraperitoneal.
For experiment [20], the system named is Mus musculus. The experiment is described as follows: The percent increase in life span on P388 cells which were inoculated intraperitoneally in CD2F1 mice at 400 mg/kg (tested in the same control) dose placed at ranking order 1. It is filed as functional. The settings on record: P388, ip, route intraperitoneal.
Experiment [21] concerns Mus musculus. The experiment is described as follows: The percent increase in life span on P388 cells which were inoculated intraperitoneally in CD2F1 mice at 400 mg/kg dose placed at ranking order 3. The settings on record: P388, ip, route intraperitoneal. It is filed as functional.

The ILS is how much longer treated animals lived than controls. For `C=CCOc1cc2c(cc1C(C)c1ccc(OC)cc1)OCO2` (configuration not stated), the Astrocyte reversal in [1] was determined as 5%; in experiment [2], 70%; in experiment [3], 50%; in [5], 15%; in experiment [9], 5%; in experiment [17] it was 50%. Further, the ILS at 200 mg/kg was found to be 41% in the experiment with Mus musculus [4], 43% in the experiment on Mus musculus [6], 88% with Mus musculus [8] and 55% in the experiment on Mus musculus [16]. Also, the ILS at 100 mg/kg in the experiment on Mus musculus [7] stood at 27%. Further, the values for the ILS at 400 mg/kg in the experiment with Mus musculus [10], in the experiment on Mus musculus [14] and with Mus musculus [15] were 39%, 39% and 33%, respectively. For the same molecule, the increase in lifespan (ILS) at 800 mg/kg with Mus musculus [11] amounted to 58%; with Mus musculus [13] it was 84%. The ILS in the experiment on Mus musculus [12] is 88%.

Molecule `CCCOc1cc2c(cc1C(C)c1ccc(OC)cc1)OCO2` (configuration not stated) had an ILS at 200 mg/kg in the experiment with Mus musculus [18] of 21%. Further, in the experiment on Mus musculus [12], the ILS is 30%. For the same molecule, the ILS at 400 mg/kg in the experiment with Mus musculus [19] is 12%; in the experiment on Mus musculus [20], 30%; in the experiment with Mus musculus [21] it was 14%.
